# Reference: ChEMBL document CHEMBL1145283, “3-hydroxymethyl-7-(N-substituted aminosulfonyl)-1,2,3,4-tetrahydroisoquinoline inhibitors of phenylethanolamine N-methyltransferase that display remarkable potency and selectivity” (J Med Chem, 2005)
# Biological target: T1, Adrenergic receptor alpha-2 (Rattus norvegicus, UniProt P22086+P19328+P22909)
# T1 sequence (P22086 whole entry): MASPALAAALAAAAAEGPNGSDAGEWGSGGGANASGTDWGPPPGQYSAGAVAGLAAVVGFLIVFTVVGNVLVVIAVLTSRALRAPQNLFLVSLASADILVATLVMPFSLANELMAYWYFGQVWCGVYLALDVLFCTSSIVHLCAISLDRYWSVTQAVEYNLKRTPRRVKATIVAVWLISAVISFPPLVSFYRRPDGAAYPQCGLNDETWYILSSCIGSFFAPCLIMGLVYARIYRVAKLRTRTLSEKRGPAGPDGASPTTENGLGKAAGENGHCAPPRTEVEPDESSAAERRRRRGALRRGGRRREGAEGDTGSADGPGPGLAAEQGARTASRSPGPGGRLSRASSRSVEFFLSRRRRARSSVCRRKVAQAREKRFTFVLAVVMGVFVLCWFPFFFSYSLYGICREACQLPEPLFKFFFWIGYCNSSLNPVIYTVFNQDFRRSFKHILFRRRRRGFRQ
# T1 sequence (P19328 whole entry): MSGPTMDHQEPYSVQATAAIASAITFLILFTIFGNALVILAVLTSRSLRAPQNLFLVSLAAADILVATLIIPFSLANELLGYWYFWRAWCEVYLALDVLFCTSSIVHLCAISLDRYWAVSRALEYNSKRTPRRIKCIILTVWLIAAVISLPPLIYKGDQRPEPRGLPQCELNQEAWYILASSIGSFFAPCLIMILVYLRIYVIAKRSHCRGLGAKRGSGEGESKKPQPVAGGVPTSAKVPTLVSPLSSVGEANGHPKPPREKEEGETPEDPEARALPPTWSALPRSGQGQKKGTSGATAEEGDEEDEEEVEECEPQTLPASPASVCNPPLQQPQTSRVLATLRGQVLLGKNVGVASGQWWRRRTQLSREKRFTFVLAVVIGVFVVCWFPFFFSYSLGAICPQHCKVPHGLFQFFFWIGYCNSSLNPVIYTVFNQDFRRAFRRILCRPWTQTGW
# T1 sequence (P22909 whole entry): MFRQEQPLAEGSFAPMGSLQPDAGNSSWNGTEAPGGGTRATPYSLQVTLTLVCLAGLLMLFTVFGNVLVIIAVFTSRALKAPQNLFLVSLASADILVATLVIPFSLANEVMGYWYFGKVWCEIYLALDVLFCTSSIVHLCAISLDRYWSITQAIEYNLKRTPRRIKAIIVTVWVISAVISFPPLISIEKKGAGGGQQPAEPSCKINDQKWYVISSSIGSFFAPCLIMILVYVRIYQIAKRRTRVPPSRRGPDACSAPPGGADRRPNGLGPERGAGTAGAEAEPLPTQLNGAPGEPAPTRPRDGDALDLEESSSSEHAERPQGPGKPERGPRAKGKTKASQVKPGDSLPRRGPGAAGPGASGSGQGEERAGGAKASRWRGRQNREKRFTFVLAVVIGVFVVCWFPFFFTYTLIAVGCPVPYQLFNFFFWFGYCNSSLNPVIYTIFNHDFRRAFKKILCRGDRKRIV
# Assay: In vitro inhibition of [3H]clonidine from alpha-2 adrenergic receptor of rat cortex
row,SMILES,Ki [µM]
1,O=S(=O)(NCC(F)(F)F)c1ccc2c(c1)CNC(CO)C2 (stereo not given),340
2,CCNS(=O)(=O)c1ccc2c(c1)CNC(CO)C2 (stereo not given),210
3,CCCNS(=O)(=O)c1ccc2c(c1)CNC(CO)C2 (stereo not given),230
4,O=S(=O)(Nc1ccc(Cl)cc1)c1ccc2c(c1)CNC(CO)C2 (stereo not given),53
5,O=S(=O)(c1ccc2c(c1)CNC(CO)C2)N1CCSCC1 (stereo not given),320
